Patent publication US7335248B2, “Marine antifouling coating compositions” (Novus International, Inc., priority 2005, dated 2008)
“And” between values parts separate entries of the source, which are not always exact repeats. Identical values can stand only once. Like-named read-outs stand apart in the source and are kept apart here.

Assays:
Tube-worms = settings: CuSP paint; 5%; 15 months; per panel side; nitrate trihydrate
Description: (§1) HMTBA-Cu and HMTBA-Zn were supplied in powdered form by Novus International. […] The formulated paints were applied on PVC test panels (3 inch by 10 inch, ⅛ inch thickness), allowed to dry and shipped to a marine research center at Sacred Heart Marine Research Centre (SHMRC) in Tuticorin, India. The panels were mounted on frames on a floating platform in the open ocean and submerged totally under 3 ft of seawater for a period of 6 months, 9, or 12 months.
(§2) After the completion of the exposure period the panels were taken out of the seawater and transported to the shore laboratory in containers with seawater. The panels were evaluated by digital photography and physical examination of the coated surface. Barnacles were counted on the surface of the panels and along the edges. When there was substantial fouling on the surface, the area of the panel surface covered by barnacle fouling was estimated according to the methods described in ASTM D-3623. The panels were returned to the platform and again placed in total immersion. The panels were out of seawater during the examination for no more than 10 minutes.

barnacles [1] = settings: 5%, 15 months, per panel side
Description: as §1, §2

Oyster = settings: 5%, 15 months, per panel side
Description: as §1, §2

barnacle cyprids = assay: Barnacle cyprid settlement assay (method of Rittschof et al.), EC50 by probit analysis; assay type: in vivo, Balanus amphitrite amphitrite
Experimental: In this case, the defined effect is that the cyprids have not settled and have not attached to the Petri dish. Thus, in the attached data set, the “set” column indicates the total number of cyprid larvae that have settled and attached on the surface of the Petri dish and “non-set” indicates the total number of cyprids that remain swimming in the seawater and have not settled on the surface of the Petri dish.
Briefly, the barnacle adults are cultured in the laboratory and allowed to spawn naturally. The larvae are harvested and grown in artificial culture systems until they reach the cyprid stage at which time the larvae become competent to attach to surfaces. Once attached, the cyprids transform into a pinhead barnacle, thus becoming permanently attached to the surface. Rittschof D, Clare A S, Gerhart D J, Avelin Mary, Bonavetura J (1991) Barnacle in vitro assays for biologically active substances: toxicity and settlement assays using mass cultured Balanus amphitrite amphitrite Darwin. Biofouling (1992) 6:115-122.
(§3) Five replicates (e.g., a-e) for each concentration and the control were collected.

barnacles [2] = assay: Six month static immersion fouling test of painted PVC panels (open ocean, Tuticorin, India); assay type: in vivo; settings: for Total barnacle Count / Mean ± SD (barnacle count): 6 months; for Total barnacle Count: both duplicate panels; for Mean ± SD (barnacle count): four panel surfaces
Description: The reported data were extracted from the raw data as described below, and are shown as total barnacle counts for both duplicate panels of each test formulation. In Table 4, the mean and standard deviation of the data derived from the four panels' surfaces of the duplicate panels for each group. The barnacle counts along the edges were not considered in this evaluation because of the expected uneven coating and inherent tendency of barnacles to first attach to edges. In addition, coatings along the edges can be easily damaged or uneven. Thus, for evaluation purposes only the coated surfaces of the flat areas were considered for this evaluation.
Zinc Omadine was used as the positive control for this series of tests. It is important to note here that fouling is continuous throughout the year at the Tuticorin, India site and the degree of settlement is generally the same for the same coating system.

barnacles [3] = assay: Nine month static immersion testing in the Indian Ocean; assay type: in vivo; settings: 9-month static immersion
Description: Table 5 summarizes the anti-fouling data from the nine-month immersion test, performed as described above for the six month tests.

[4] = Solubility in seawater at the levels added in the cyprid assay; assay type: physicochemical; settings: at the levels added (up to 0.1 mg/ml)
Description: as §3

[5] = 1e-4 mg/ml, Total of five replicates
[6] = 0.001 mg/ml, Total of five replicates
[7] = 0.01 mg/ml, Total of five replicates
[8] = 0.1 mg/ml, Total of five replicates

Compound: O.O.O.O=[N+]([O-])[O-].O=[N+]([O-])[O-].[Cu+2] [Copper (II) Nitrate trihydrate, copper (II) nitrate trihydrate]
- No. of Tube-worms (Tube-worms): 2 and 1
- edge No of Barnacles (barnacles [1]; CuAB paint): 3
- Maximum diameter in mm (barnacles [1]; CuAB paint, nitrate trihydrate): 10 mm and 11 mm and 9 mm
- No. of barnacles on the coated surface (barnacles [1]; CuSP paint): 84
- % of the surface with barnacles fouling (barnacles [1]; CuSP paint, nitrate trihydrate): 50% and 40% and 60%
- Maximum diameter in mm (barnacles [1]; CuSP paint, nitrate trihydrate): 10 mm and 11 mm
- No. of Oyster (Oyster; CuAB paint): 1
- No. of Oyster (Oyster; CuSP paint): 2

Compound: CSCCC(O)C(=O)[O-].CSCCC(O)C(=O)[O-].[Zn+2] (stereo not shown) [HMTBA-Zn, zinc 2-hydroxy-4-methylthiobutanoate chelate]
- % of set (barnacle cyprids; [5]): 61%
- Non set (barnacle cyprids; [5]): 122
- Set (barnacle cyprids; [5]): 191
- % of set (barnacle cyprids; 1e-4 mg/ml, single replicate): 57% and 60% (2×) and 77% and 55%
- Non set (barnacle cyprids; 1e-4 mg/ml, single replicate): 28 and 21 and 12 and 25 and 36
- Set (barnacle cyprids; 1e-4 mg/ml, single replicate): 37 and 31 and 41 and 38 and 44
- % of set (barnacle cyprids; [6]): 58%
- Non set (barnacle cyprids; [6]): 135
- Set (barnacle cyprids; [6]): 187
- % of set (barnacle cyprids; 0.001 mg/ml, single replicate): 62% and 78% and 69% and 41% and 42%
- Non set (barnacle cyprids; 0.001 mg/ml, single replicate): 30 and 14 and 16 and 38 and 37
- Set (barnacle cyprids; 0.001 mg/ml, single replicate): 49 (2×) and 36 and 26 and 27
- appearance and swimming behavior of cyprids (barnacle cyprids; 0.01 mg/ml and higher (so in the source)): no adverse effects
- % of set (barnacle cyprids; [7]): 32%
- Non set (barnacle cyprids; [7]): 207
- Set (barnacle cyprids; [7]): 99
- % of set (barnacle cyprids; 0.01 mg/ml, single replicate): 30% and 26% and 40% and 32% and 35%
- Non set (barnacle cyprids; 0.01 mg/ml, single replicate): 49 and 54 and 44 and 34 and 26
- Set (barnacle cyprids; 0.01 mg/ml, single replicate): 21 and 19 and 29 and 16 and 14
- toxic effects on the cyprids (barnacle cyprids; 0.1 mg per ml): death of all cyprids
- % of set (barnacle cyprids; [8]): 0%
- Non set (barnacle cyprids; [8]): 346
- Set (barnacle cyprids; [8]): 0
- % of set (barnacle cyprids; 0.1 mg/ml, single replicate): 0%
- Non set (barnacle cyprids; 0.1 mg/ml, single replicate): 92 and 69 and 63 and 58 and 64
- Set (barnacle cyprids; 0.1 mg/ml, single replicate): 0
- EC50 (barnacle cyprids; barnacle cyprids not settled/attached to Petri dish, probit analysis): 5.7 µg/mL
- inhibition of barnacle cyprid settlement (barnacle cyprids; in vivo): biologically active as inhibitors of barnacle cyprid settlement
- SLOPE (barnacle cyprids; probit analysis, barnacle settlement): 1.564
- NO. RESPONDING (barnacle cyprids; probit data as input, DOSE .00001): 97
- Total barnacle Count (barnacles [2]; CUAB coating, 1% (w/w)): 123
- Mean ± SD (barnacle count) (barnacles [2]; CUAB coating, 1% (w/w)): 30.8 ± 11.6
- Total barnacle Count (barnacles [2]; CUAB coating, 3% (w/w)): 52
- Mean ± SD (barnacle count) (barnacles [2]; CUAB coating, 3% (w/w)): 13.0 ± 10.7
- Total barnacle Count (barnacles [2]; CUAB coating, 5% (w/w)): 1
- Mean ± SD (barnacle count) (barnacles [2]; CUAB coating, 5% (w/w)): 0.3 ± 0.4
- Total barnacle Count (barnacles [2]; CUAB coating, 10% (w/w)): 101
- Mean ± SD (barnacle count) (barnacles [2]; CUAB coating, 10% (w/w)): 25.3 ± 2.9
- Total barnacle Count (barnacles [2]; CUSP coating, 1% (w/w)): 1
- Mean ± SD (barnacle count) (barnacles [2]; CUSP coating, 1% (w/w)): 0.3 ± 0.4
- Total barnacle Count (barnacles [2]; CUSP coating, 3% (w/w)): 0
- Mean ± SD (barnacle count) (barnacles [2]; CUSP coating, 3% (w/w)): 0
- Total barnacle Count (barnacles [2]; CUSP coating, 5% (w/w)): 0
- Mean ± SD (barnacle count) (barnacles [2]; CUSP coating, 5% (w/w)): 0
- Total barnacle Count (barnacles [2]; CUSP coating, 10% (w/w)): 2
- Mean ± SD (barnacle count) (barnacles [2]; CUSP coating, 10% (w/w)): 0.5 ± 0.9
- Total barnacle Count (barnacles [2]; MFAB coating, 1% (w/w)): 0
- Mean ± SD (barnacle count) (barnacles [2]; MFAB coating, 1% (w/w)): 0
- Total barnacle Count (barnacles [2]; MFAB coating, 3% (w/w)): 3
- Mean ± SD (barnacle count) (barnacles [2]; MFAB coating, 3% (w/w)): 0.8 ± 1.3
- Total barnacle Count (barnacles [2]; MFAB coating, 5% (w/w)): 1
- Mean ± SD (barnacle count) (barnacles [2]; MFAB coating, 5% (w/w)): 0.3 ± 0.4
- Total barnacle Count (barnacles [2]; MFAB coating, 10% (w/w)): 7
- Mean ± SD (barnacle count) (barnacles [2]; MFAB coating, 10% (w/w)): 1.8 ± 1.3
- comparative performance (barnacles [2]; copper ablative coatings, 5%, six months): outperformed
- efficacy / barnacle settlement (barnacles [2]; copper self-polishing and metal-free ablative coatings, six months of exposure): significant efficacy
- LS MEAN BARNACLES (barnacles [3]; CUSP PAINT): 3
- LS MEAN BARNACLES (barnacles [3]; MFAB PAINT): 1.5
- solubility in seawater [4]: soluble in seawater at the levels added
